Assay results from ChEMBL document CHEMBL5729525, “Therapeutic compounds and methods of use thereof” (2023).

Target: Protein cereblon (Homo sapiens, UniProt Q96SW2)
Test: Fluorescence Binding Assay: Fluorescence quenching end point measurements were performed in black polystyrene 384-plates on Tecan Safire monochromator reader with the following settings: excitation 280 nm; excitation bandwidth 10.0 nm; emission collection 340 nm; emission bandwidth 20.0 nm; high sensitivity flash mode; integration time 40 μS; delay 0 […]. All measurements were done in duplicates; GraphPad Prism 5.03 was used for data evaluation, curve fitting, plotting and determination of IC50 values.Serial dilutions of each tested ligands were mixed with truncated CRBN (319-427) to a final volume of 25 μL in the assay buffer (20 mM sodium phosphate buffer, pH 6.5, with 150 mM sodium chloride). The final concentration of CRBN in all assay will be 5-10 μM with DMSO level at 4%. A control lanes were prepared with only tested ligands without the addition of CRBN, top up with assay buffer to 25 μL. Plates were incubated for 5 minutes and analyzed using the monochromator plate reader.

Chain of Protein cereblon (Q96SW2 whole entry, the tested form may be a part): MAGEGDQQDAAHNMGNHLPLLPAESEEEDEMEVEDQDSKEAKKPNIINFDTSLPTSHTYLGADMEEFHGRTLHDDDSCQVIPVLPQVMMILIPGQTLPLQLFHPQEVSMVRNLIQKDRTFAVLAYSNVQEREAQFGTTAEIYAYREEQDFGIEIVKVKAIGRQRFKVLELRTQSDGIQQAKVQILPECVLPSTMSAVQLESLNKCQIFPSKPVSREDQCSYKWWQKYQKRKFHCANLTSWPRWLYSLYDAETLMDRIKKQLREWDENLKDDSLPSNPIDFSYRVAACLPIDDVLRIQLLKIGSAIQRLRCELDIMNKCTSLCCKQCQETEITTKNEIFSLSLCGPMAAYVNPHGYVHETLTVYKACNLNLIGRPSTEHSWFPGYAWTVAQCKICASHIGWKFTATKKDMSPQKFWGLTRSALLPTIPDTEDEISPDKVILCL

IC50: > 300 µM
Structure (SMILES): Nc1ccc(-c2ccc3c(c2)CC(=O)N3)cn1
